Laboratory results: patent US9096559B2, “4-carboxybenzylamino derivatives as histone deacetylase inhibitors” (Merck Sharp & Dohme Corp., priority 2007, dated 2015)

How the values were obtained:
[1] = target: histone deacetylase, subtype 1 (HDAC1) (Homo sapiens (Human), UniProt Q13547); experiment: HDAC1-Flag in vitro deacetylation assay; type: biochemical; details: IP = inflection point; read-out: HDAC1 IP (inflection point)
Procedure: Novel compounds were tested for their ability to inhibit histone deacetylase, subtype 1 (HDAC1) using an in vitro deacetylation assay. The enzyme source for this assay was an epitope-tagged human HDAC1 complex immuno-purified from stably expressing mammalian cells. The substrate consisted of a commercial product containing an acetylated lysine side chain (BIOMOL Research Laboratories, Inc., Plymouth Meeting, Pa.). Upon deacetylation of the substrate by incubation with the purified HDAC1 complex, a fluorophore is produced that is directly proportional to the level of deacetylation.

[2] = tested on: human cervical cancer (HeLa) and colon carcinoma (HCT116) cells; experiment: ATP (Vialight) cell proliferation assay, 72 hr; type: cell-based; details: IP = inflection point, cell line not given, read-out: Prol-72 hr IP (inflection point)
Procedure: The novel compounds of the present invention were tested for their ability to inhibit proliferation of the human cervical cancer (HeLa) and colon carcinoma (HCT116) cells.
In this assay, also referred to as the Vialight Assay, cellular ATP levels are measured as a means of quantifying cellular proliferation. This assay makes use of a bioluminescent method from Cambrex (ViaLight PLUS, cat. #LT07-121). In the presence of ATP, luciferase converts luciferin to oxyluciferin and light. The amount of light produced (emission at 565 nm) is measured and correlates with a relative amount of proliferation. Human cervical cancer (HeLa) or colon carcinoma (HCT116) cells were incubated with vehicle or increasing concentrations of compound for 48, 72 or 96 hours. Cell proliferation was quantified by adding the cell lysis reagent (provided in the Vialight assay kit) directly to culture wells, followed by addition of the ATP-monitoring reagent (containing luciferase/luciferin). The amount of light produced is then measured (emission at 565 nm). The quantity of light produced, as measured by […], is directly proportional to the number of living cells in culture.

Sequence of histone deacetylase, subtype 1 (HDAC1) (Q13547 whole entry): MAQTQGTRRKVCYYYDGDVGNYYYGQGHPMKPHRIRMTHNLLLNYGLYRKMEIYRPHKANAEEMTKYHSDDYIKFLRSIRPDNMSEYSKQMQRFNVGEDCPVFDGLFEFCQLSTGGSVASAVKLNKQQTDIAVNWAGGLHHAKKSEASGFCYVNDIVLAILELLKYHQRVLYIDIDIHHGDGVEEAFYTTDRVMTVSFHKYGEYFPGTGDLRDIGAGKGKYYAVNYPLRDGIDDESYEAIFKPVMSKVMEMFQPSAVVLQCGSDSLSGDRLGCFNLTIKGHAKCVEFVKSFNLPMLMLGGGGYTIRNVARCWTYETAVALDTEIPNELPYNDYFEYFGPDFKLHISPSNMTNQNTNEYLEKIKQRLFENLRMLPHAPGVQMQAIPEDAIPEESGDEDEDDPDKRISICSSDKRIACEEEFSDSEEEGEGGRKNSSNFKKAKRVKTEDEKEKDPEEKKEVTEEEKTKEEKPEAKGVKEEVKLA

| IC50 [1] [µM] | IC50 [2] [µM] | SMILES |
| --- | --- | --- |
| 0.024 | 0.2 | Nc1ccc(-c2cccs2)cc1NC(=O)c1ccc(CNC(=O)CCc2ccccc2)cc1 [Example 44, N-[2-amino-5-(2-thienyl)phenyl]-4-{[(3-phenylpropanoyl)amino]methyl}benzamide] |
| 0.18 | 13 | Cc1cscc1-c1ccc(N)c(NC(=O)c2ccc(CNc3ccncc3)cc2)c1 [Example 70, N-[2-amino-5-(4-methyl-3-thienyl)phenyl]-4-[(4-pyridinylamino)methyl]benzamide] |
| 0.01 | 3.6 | CN(Cc1ccc(C(=O)Nc2cc(-c3ccccc3)ccc2N)cc1)c1ccncc1 [Example 62, N-(4-amino-3-biphenylyl)-4-{[methyl(4-pyridinyl)amino]methyl}benzamide] |
| 0.013 | 0.16 | Nc1ccc(-c2cccs2)cc1NC(=O)c1ccc(CNC(=O)CCc2cccnc2)cc1 [Example 56, N-[2-amino-5-(2-thienyl)phenyl]-4-{[(3-pyridin-3-ylpropanoyl)amino]methyl}benzamide] |
| 0.14 | 2.1 | Nc1ccc(-c2ccccc2)cc1NC(=O)c1ccc(CNC(=O)Cc2cccnc2)cc1 [Example 51, N-(4-aminobiphenyl-3-yl)-4-{[(pyridin-3-ylacetyl)amino]methyl}benzamide] |
| 0.018 | 0.54 | CNCCCN(C)Cc1ccc(C(=O)Nc2cc(-c3ccccc3)ccc2N)cc1 [Example 64, N-(4-amino-3-biphenylyl)-4-({methyl[3-(methylamino)propyl]amino}methyl)benzamide] |
| 0.018 | 0.28 | Nc1ccc(-c2cccs2)cc1NC(=O)c1ccc(CNC(=O)[C@@H]2CCCN2)cc1 [Example 57, (2S)-N-[4-({[2-amino-5-(2-thienyl)phenyl]amino}carbonyl)benzyl]pyrrolidine-2-carboxamide] |
| 0.012 | 0.16 | Nc1ccc(-c2cccs2)cc1NC(=O)c1ccc(CNC(=O)Cc2ccccn2)cc1 [Example 54, N-[2-amino-5-(2-thienyl)phenyl]-4-{[(pyridin-2-ylacetyl)amino]methyl}benzamide] |
| 0.0095 | 0.087 | CC(=O)N(Cc1ccc(C(=O)Nc2cc(-c3cccs3)ccc2N)cc1)Cc1cn(C)nn1 [Example 123, 4-({Acetyl[(1-methyl-1H-1,2,3-triazol-4-yl)methyl]amino}methyl)-N-[2-amino-5-(2-thienyl)phenyl]benzamide] |
| 0.015 | 9.7 | Cc1csc(-c2ccc(N)c(NC(=O)c3ccc(CNc4ccncc4)cc3)c2)c1 [Example 69, N-[2-amino-5-(4-methyl-2-thienyl)phenyl]-4-[(4-pyridinylamino)methyl]benzamide] |
| 0.013 | 0.67 | Cc1c(CNCc2ccc(C(=O)Nc3cc(-c4ccccc4)ccc3N)cc2)cnn1C [Example 63, N-(4-amino-3-biphenylyl)-4-({[(1,5-dimethyl-1H-pyrazol-4-yl)methyl]amino}methyl)benzamide] |
| 0.027 | 9.1 | Nc1ccc(-c2cccc(F)c2)cc1NC(=O)c1ccc(CNc2ccncc2)cc1 [Example 68, N-(4-amino-3′-fluoro-3-biphenylyl)-4-[(4-pyridinylamino)methyl]benzamide] |
| 0.023 | 2.1 | Nc1ccc(-c2ccccc2F)cc1NC(=O)c1ccc(CNc2ccncc2)cc1 [Example 67, N-(4-amino-2′-fluoro-3-biphenylyl)-4-[(4-pyridinylamino)methyl]benzamide] |
| 0.096 | 1.4 | Nc1ccc(-c2ccccc2)cc1NC(=O)c1ccc(CN2C(=O)OC[C@@H]2Cc2ccccc2)cc1 [Example 121, N-(4-aminobiphenyl-3-yl)-4-{[(4S)-2-oxo-4-(phenylmethyl)-1,3-oxazolidin-3-yl]methyl}benzamide] |
| 0.018 | 0.16 | Nc1ccc(-c2cccs2)cc1NC(=O)c1ccc(CNC(=O)Cc2ccncc2)cc1 [Example 55, N-[2-amino-5-(2-thienyl)phenyl]-4-{[(pyridin-4-ylacetyl)amino]methyl}benzamide] |

More lines, now with the values behind:

| SMILES | IC50 [1] [µM] | IC50 [2] [µM] |
| --- | --- | --- |
| CC(C)C(=O)NCc1ccc(C(=O)Nc2cc(-c3cccs3)ccc2N)cc1 [Example 40, N-[2-amino-5-(2-thienyl)phenyl]-4-{[(2-methylpropanoyl)amino]methyl}benzamide] | 0.016 | 0.15 |
| Nc1ccc(-c2ccsc2)cc1NC(=O)c1ccc(CNC(=O)OCc2cccnc2)cc1 [Example 4, pyridin-3-ylmethyl {[4-({[2-amino-5-(3-thienyl)phenyl]amino}carbonyl)phenyl]methyl}carbamate] | 0.0058 | 0.37 |
| Nc1ccc(-c2cccs2)cc1NC(=O)c1ccc(CNC(=O)Oc2ccccc2)cc1 [Example 21, phenyl {[4-({[2-amino-5-(2-thienyl)phenyl]amino}carbonyl)phenyl]methyl}carbamate] | 0.077 | 0.64 |
| CCOC(=O)NCc1ccc(C(=O)Nc2cc(-c3ccccc3)ccc2N)cc1 [Example 10, ethyl[(4-{[(4-aminobiphenyl-3-yl)amino]carbonyl}phenyl)methyl]carbamate] | 0.016 | 0.23 |
| CC(=O)NCc1ccc(C(=O)Nc2cc(-c3ccccc3)ccc2N)cc1 [Example 23, 4-[(acetylamino)methyl]-N-(4-aminobiphenyl-3-yl)benzamide] | 0.018 | 0.32 |
| Nc1ccc(-c2ccccc2)cc1NC(=O)c1ccc(CNC(=O)CCc2ccccc2)cc1 [Example 31, N-(4-aminobiphenyl-3-yl)-4-{[(3-phenylpropanoyl)amino]methyl}benzamide] | 0.014 | 0.42 |
| Nc1ccc(-c2cccs2)cc1NC(=O)c1ccc(CNC(=O)C2CCC2)cc1 [Example 43, N-[2-amino-5-(2-thienyl)phenyl]-4-{[(cyclobutylcarbonyl)amino]methyl}benzamide] | 0.011 | 0.13 |
| CC(C)COC(=O)NCc1ccc(C(=O)Nc2cc(-c3cccs3)ccc2N)cc1 [Example 20, 2-methylpropyl {[4-({[2-amino-5-(2-thienyl)phenyl]amino}carbonyl)phenyl]methyl}carbamate] | 0.031 | 0.3 |
| Nc1ccc(-c2ccccc2)cc1NC(=O)c1ccc(CNC(=O)C2CC2)cc1 [Example 26, N-(4-aminobiphenyl-3-yl)-4-{[(cyclopropylcarbonyl)amino]methyl}benzamide] | 0.015 | 0.17 |
| Nc1ccc(-c2ccccc2)cc1NC(=O)c1ccc(CNC(=O)Cc2ccccc2)cc1 [Example 34, N-(4-aminobiphenyl-3-yl)-4-{[(phenylacetyl)amino]methyl}benzamide] | 0.072 | 0.31 |
| CCCOC(=O)NCc1ccc(C(=O)Nc2cc(-c3ccccc3)ccc2N)cc1 [Example 12, propyl[(4-{[(4-aminobiphenyl-3-yl)amino]carbonyl}phenyl)methyl]carbamate] | 0.029 | 0.36 |
| Nc1ccc(-c2cccs2)cc1NC(=O)c1ccc(CNC(=O)OCc2ccccc2)cc1 [Example 22, phenylmethyl {[4-({[2-amino-5-(2-thienyl)phenyl]amino}carbonyl)phenyl]methyl}carbamate] | 0.053 | 0.32 |
| CC(C)C(=O)NCc1ccc(C(=O)Nc2cc(-c3ccccc3)ccc2N)cc1 [Example 27, N-(4-aminobiphenyl-3-yl)-4-{[(2-methylpropanoyl)amino]methyl}benzamide] | 0.01 | 0.15 |
| Nc1ccc(-c2ccccc2)cc1NC(=O)c1ccc(CNC(=O)C2CCCCC2)cc1 [Example 32, N-(4-aminobiphenyl-3-yl)-4-{[(cyclohexylcarbonyl)amino]methyl}benzamide] | 0.042 | 0.34 |
| Nc1ccc(-c2ccccc2)cc1NC(=O)c1ccc(CNC(=O)c2ccccc2)cc1 [Example 35, N-(4-aminobiphenyl-3-yl)-4-{[(phenylcarbonyl)amino]methyl}benzamide] | 0.019 | 0.16 |
| COC(=O)NCc1ccc(C(=O)Nc2cc(-c3cccs3)ccc2N)cc1 [Example 17, methyl {[4-({[2-amino-5-(2-thienyl)phenyl]amino}carbonyl)phenyl]methyl}carbamate] | 0.006 | 0.096 |
| CC(C)CC(=O)NCc1ccc(C(=O)Nc2cc(-c3ccccc3)ccc2N)cc1 [Example 29, N-(4-aminobiphenyl-3-yl)-4-{[(3-methylbutanoyl)amino]methyl}benzamide] | 0.014 | 0.21 |
| CC(=O)NCc1ccc(C(=O)Nc2cc(-c3cccs3)ccc2N)cc1 [Example 36, 4-[(acetylamino)methyl]-N-[2-amino-5-(2-thienyl)phenyl]benzamide] | 0.011 | 0.12 |
| CCCC(=O)NCc1ccc(C(=O)Nc2cc(-c3ccccc3)ccc2N)cc1 [Example 25, N-(4-aminobiphenyl-3-yl)-4-[(butanoylamino)methyl]benzamide] | 0.017 | 0.22 |
